Measurements as given in patent publication US20050197331A1, “Novel anti-inflammatory and analgesic heterocyclic amidines that inhibit nitrogen oxide (NO) production” (ROTTAPHARM SPA, priority 2004, published 2005).
“And” between values parts separate entries of the source, which are not always exact repeats. Identical values can stand only once. Counter-ions that a name gives are not always drawn. Like-named read-outs stand apart in the source and are kept apart here.

Key:
PGE2 = assay: Inhibition of PGE2 formation in rabbit articular chondrocytes stimulated with IL-1β (RIA); assay type: cell-based; conditions: for IC50: Oryctolagus cuniculus, Chondrocyte
Description: (§1) a) The inhibitory activity on the formation of NO measured as NO2^− (nitrite) and PGE2 was studied in vitro on culture media of rabbit articular chondrocytes stimulated with the cytokine IL-1β (1 ng/ml) for 48 hours. For the preparation of the chondrocytes, the method described by Berenbaum et al. [FEBS Letters 340, 51-55 (1994)] was followed. Briefly, fragments of cartilage removed aseptically from the articular heads of rabbit shoulder, hip and knee were finely ground and digested at 37° C. in hyaluronidase, trypsin and collagenase solutions, giving, after filtration through sterile gauze and centrifugation at 600×g and suitable dilution with 10% DMEM-FCS 10%, a concentration per well of about 1×10^5 cells. The cells were maintained under these conditions until confluent (about 15 days), the medium being replaced every 3 days. At this point, the test products dissolved in the medium were added to each sample and, after 20 minutes, 350 μl of IL-1β were added, to give a final concentration of 1 ng/ml. The stimulation lasted 48 hours at 37° C. (incubation in air/7% CO2). A nitrite assay was subsequently performed on the cell supernatant, as described by Green et al. [Anal. Biochem. 126, 131-138 (1982)], and of PGE2 by RIA assay. The results obtained are shown in Table 3, in which is given, for a number of the compounds that are the subject of the invention and that are already illustrated in Table 1, the IC50, i.e. the concentration (micromolar) of antagonist capable of inhibiting the formation of nitrites and PGE2 by 50% relative to the control group, i.e. relative to the cells stimulated with IL-1β but without addition of antagonists.

[1] = system: rat paw injected with Zymosan; assay: Zymosan-induced mechanical hyperalgesia in rats (Randall-Selitto); assay type: in vivo; conditions: os, 0-6 hours, dose increasing pain threshold by 30%
Description: (§2) This is a phlogogenic agent, consisting of a protein-glycoside complex, extracted from the cell walls of raw yeast, which is capable of inducing rapid degranulation of neutrophils, an increase in the production of TNF-α, interleukin-1 (IL-1), IL-6 and stimulation of NO generation by monocytes and macrophages (ZymosaN:Merck Index XIII ed. No. 10250, p. 1818).
(§3) The experiments consisted of sub-plantar intradermal injection into the animal of 4 mg of Zymosan suspended in 100 μl of sterile physiological solution, while the test compounds were administered orally 30 minutes before injection of the phlogogenic agent.
(§4) Measurement of the inflammation of the injected paw and of the consequent hyperalgesic effects was performed 2, 4 and 6 hours after the administration of Zymosan. The oedema was evaluated as the increase in volume of the injected paw within the period 0-6 hours, relative to the initial value of the volume of the paw, i.e. before the injection of Zymosan (basal value).
The hyperalgesia induced by the intradermal administration of Zymosan was evaluated on these animals and at the same times described previously for the evaluation of the oedema, using the Randall-Selitto method [Arch. Int. Pharmacodyn. 111, 409 (1957)].
When the animal makes a noise following the pain stimulus, the operator blocks the punch and records the force, expressed in grams, which was applied to the paw (the cut-off value is 500 grams). The difference in the meal chanical pain threshold between the basal value (generally about 230-250 grams) and that recorded at the indicated times after injection of the phlogogenic agent, generally 130-140 g for the control animals 6 hours after injection of the phlogogenic agent, is defined as mechanical hyperalgesia. In this case also, an ED30 was calculated, i.e. the dose in mg/kg capable of increasing the pain threshold by 30% (meal chanical hyperalgesia) in the animals treated with the test compounds relative to the group of control animals.

[2] = system: rat paw injected with Zymosan; assay: Zymosan-induced paw oedema in rats; assay type: in vivo; conditions: for Anti-inflammatory activity (oedema) ED30 / Mean (Oedema + Analgesia) ED30: os, 0-6 hours; for Anti-inflammatory activity (oedema) ED30: dose reducing volume increase by 30%; for Mean (Oedema + Analgesia) ED30: mean of oedema and analgesia ED30; for anti-inflammatory and anti-hyperalgesic action (in words): Zymosan, administered orally, L-NAME up to maximum dose 50 mg/kg
Description: as §2, §3, §4
The measurements of the variation of the volume of the paw were recorded using a hydroplethysmometer (Mod. 7150, Basile, Italy), which consists of two plastic cuvettes containing a surfactant liquid, the larger one being used for immersion of the paw, connected to the smaller one which contains a transducer capable of recording small displacements of volume of the liquid used for the measurement. The paw is immersed in the cuvettes up to the tibiotarsal joint. The volume of liquid displaced by the paw indicates the magnitude of the inflammation.
For each test compound, at least three doses were used (generally 10, 20 and 40 mg/kg) with at least five animals per group×dose, so as to be able to calculate an ED30, i.e. the dose in mg/kg capable of reducing by 30% the Zymosan-induced volume increase, relative to the group of control animals, i.e. animals injected only with the phlogogenic agent and treated orally with distilled water.

[3] = system: formation of NO measured as NO2^− (nitrite); assay: Inhibition of NO (nitrite) formation in rabbit articular chondrocytes stimulated with IL-1β; assay type: cell-based
Description: as §1

IL-6 = assay: Inhibition of IL-6 expression (mRNA) in SW 1353 cells stimulated with IL-1β, Real Time PCR; assay type: cell-based; conditions: Homo sapiens, SW1353; SW 1353 cells stimulated for 6 hours with IL-1β
Source text: In practice, the RNA extracted from the cells was back-transcribed to c-DNA by means of a thermocycler (BioRad—“iCycler”) and subsequently amplified via the Real Time PCR technique using a probe and a primer specific for IL-6, from the company Applied Biosystem, and the thermocycler 7000 Sequence Detection System (Applied Biosystem).
The capacity […] may be considered as large, since the increase in the expression of this cytokine is associated with the physiopathology of various human diseases, for instance Crohn's disease, as described previously.

[4] = rabbit articular chondrocytes, IL-1β 1 ng/ml, 48 hours, RIA, read-out: Inhibition % IC50 PGE2
[5] = rabbit articular chondrocytes stimulated with IL-1β
[6] = Oryctolagus cuniculus, Chondrocyte, rabbit articular chondrocytes stimulated with IL-1β, read-out: IC50, production of NO
[7] = Oryctolagus cuniculus, Chondrocyte, rabbit articular chondrocytes, IL-1β 1 ng/ml, 48 hours, nitrite in supernatant, read-out: Inhibition % IC50 NO
[8] = rabbit articular chondrocytes stimulated with IL-1β, read-out: IC50, formation of PGE2

| Compound | IC50 (PGE2; [4]) | Analgesic activity (mechanical anti-hyperalgesia) ED30 [1] | Anti-inflammatory activity (oedema) ED30 [2] | Mean (Oedema + Analgesia) ED30 [2] | IC50 [3, 7] | melting point | further results |
| --- | --- | --- | --- | --- | --- | --- | --- |
| Cc1ccc(-c2cc(C(F)(F)F)nn2-c2ccc(S(N)(=O)=O)cc2)cc1 [Celecoxib, reference compound] | 0.02 µM | 69.2 mg/kg | 79.4 mg/kg | 74.3 mg/kg | – | – | inhibiting the production of NO (in words) [3, 5]: entirely inactive |
| CC(=N)Nc1ccc2nc(-c3ccccc3)sc2c1 [Compound 1, N-(2-phenylbenzothiazol-6-yl)acetamidine] | 2.4 µM | 6.7 mg/kg | 12.6 mg/kg | 9.7 mg/kg | 6.5 µM | 161 to 162.1 °C | anti-inflammatory and anti-hyperalgesic action (in words) [2]: powerful anti-inflammatory and anti-hyperalgesic action; IC50 [3, 6]: 3 to 8 µM |
| CC(=N)Nc1ccc2[nH]c(-c3ccccc3)cc2c1 [Compound 5, N-(2-phenyl-1H-indol-5-yl)acetamidine] | 1.2 µM | 19.3 mg/kg | 39.4 mg/kg | 29.4 mg/kg | 3.4 µM | 217.7 to 220 °C and 218 to 220 °C | anti-inflammatory and anti-hyperalgesic action (in words) [2]: powerful anti-inflammatory and anti-hyperalgesic action; IC50 (IL-6): 1.5 to 6 µM; IC50 [3, 6]: 3 to 8 µM |
| CC(=N)Nc1ccc2sc(-c3ccccc3C)nc2c1 [Compound 18, N-[2-(2-methylphenyl)benzothiazol-5-yl]acetamidine] | 1.2 µM | – | – | – | 6.2 µM | 188.4 to 189.8 °C | IC50 (IL-6): 1.5 to 6 µM; IC50 [3, 6]: 3 to 8 µM |
| CC(=N)Nc1ccc2nc(-c3ccccc3)ncc2c1 [Compound 27, N-(2-phenylquinazolin-6-yl)acetamidine dihydrochloride] | 9 µM | 13.0 mg/kg | 24.6 mg/kg | 18.8 mg/kg | 67.5 µM | – | anti-inflammatory and anti-hyperalgesic action (in words) [2]: powerful anti-inflammatory and anti-hyperalgesic action; IC50 (IL-6): 1.5 to 6 µM |
| CC(=N)Nc1ccc2oc(-c3ccccc3)nc2c1 [Compound 29, N-(2-phenylbenzoxazol-5-yl)acetamidine] | 3.2 µM | – | – | – | 28.6 µM | 171.2 to 173.4 °C | IC50 (IL-6): 1.5 to 6 µM |
| CC(=N)Nc1ccc2oc(-c3ccc(C(F)(F)F)cc3)nc2c1 [Compound 32, N-[2-(4-trifluromethylphenyl)benzoxazol-5-yl]acetamidine] | 0.6 µM | – | – | – | 8.1 µM | 179.2 to 181 °C | – |
| CC(=N)Nc1ccc2oc(-c3ccccc3F)nc2c1 [Compound 33, N-[2-(2-fluorophenyl)benzoxazol-5-yl]acetamidine] | 13.8 µM | – | – | – | 47 µM | 157.9 to 159.2 °C | – |
| CC(=N)Nc1ccc2oc(-c3ccc(Cl)c(Cl)c3)nc2c1 [Compound 34, N-[2-(3,4-dichlorophenyl)benzoxazol-5-yl]acetamidine] | 0.4 µM | – | – | – | 4.3 µM | 182 to 184 °C | IC50 (PGE2; [8]): 0.3 to 0.8 µM; IC50 [3, 6]: 3 to 8 µM |
| CC(=N)Nc1ccc2[nH]c(-c3ccc(Cl)c(Cl)c3)nc2c1 [Compound 35, N-[2-(3,4-dichlorophenyl)benzimidazol-5-yl]acetamidine] | 0.4 µM | – | – | – | – | 207.4 to 209 °C | IC50 (PGE2; [8]): 0.3 to 0.8 µM; IC50, formation of PGE2 (PGE2; [5]): sub-micromolar; inhibiting the production of NO (in words) [3, 5]: little activity |
| COc1ccccc1-c1nc2cc(NC(C)=N)ccc2[nH]1 [Compound 37] | 2.8 µM | – | – | – | 32.1 µM | 190.5 to 192.8 °C | – |
| CC(=N)Nc1ccc2[nH]c(-c3ccccc3C)nc2c1 [Compound 39, N-[2-(2-methylphenyl)benzimidazol-5-yl]acetamidine] | 9.9 µM | – | – | – | 199 µM | 154 to 158 °C | – |
| CC(=N)Nc1ccc2nc(-c3ccccc3)oc2c1 [Compound 42, N-(2-phenylbenzoxazol-6-yl)acetamidine] | 5.1 µM | – | – | – | 42.9 µM | 176.3 to 177.8 °C | – |
| COC(=O)[C@@H](N)CCCNC(=N)N[N+](=O)[O-] [L-NAME, N^G-nitro-L-arginine methyl ester, reference compound] | – | IN (the compound L-NAME was entirely inactive up to the maximum dose administered (50 mg/kg)) | IN (the compound L-NAME was entirely inactive up to the maximum dose administered (50 mg/kg)) | IN (the compound L-NAME was entirely inactive up to the maximum dose administered (50 mg/kg)) | – | – | Inhibition % IC50 PGE2 (PGE2; rabbit articular chondrocytes, IL-1β 1 ng/ml, 48 hours, RIA): IN (IN = <25% inhibitory activity at 30 × 10^−6M); anti-inflammatory and anti-hyperalgesic action (in words) ([2]; 50 mg/kg): inactive; activity on NO production, fold less powerful than the best compounds of the invention [3, 5]: about 10 fold; IC50 ([3]; rabbit articular chondrocytes stimulated with IL-1β, read-out: IC50, production of NO): 71 µM |
